The values that follow come from patent publication US20060079453A1, “Hla binding peptides and their uses” (priority 2002, published 2006).

Read-outs that look alike come from different tables or passages of the source. No end group written: not given here. Where only a bound is given, the exact number is not on record here.

For experiment [1], the target named is HLA-A*0201 (Homo sapiens, UniProt P04439, D140Y/D185E/D98H/E176V/E277Q/G131W/G231S/I119V/I121R/I166T/I218V/L300P/L318F/N151K/N90K/P208A/P217A/Q86G/Q94H/R138H/R169H/T345S). The experiment in a line: biochemical. The format is binding.
The target in experiment [2] is HLA-A*0203 (Homo sapiens, UniProt P04439, A173T/D140Y/D185E/D98H/E277Q/G131W/G231S/I119V/I121R/I166T/I218V/L180W/L300P/L318F/N151K/N90K/P208A/P217A/Q86G/Q94H/R138H/R169H/T345S). The experiment is described as follows: biochemical. In kind it is binding.
Experiment [3] addresses HLA-A*0206 (Homo sapiens, UniProt P04439, D140Y/D185E/D98H/E176V/E277Q/F33Y/G131W/G231S/I119V/I121R/I166T/I218V/L300P/L318F/N151K/N90K/P208A/P217A/Q86G/Q94H/R138H/R169H/T345S). The experiment in a line: biochemical. In kind it is binding.
In experiment [4] the target is HLA-A*0202 (Homo sapiens, UniProt P04439, D140Y/D185E/D98H/E176V/E277Q/G131W/G231S/I119L/I121R/I166T/I218V/L180W/L300P/L318F/N151K/N90K/P208A/P217A/Q67R/Q86G/Q94H/R138H/R169H/T345S). The experiment is described as follows: biochemical. The format is binding.
Experiment [5] deals with HLA-A*6802 (Homo sapiens, UniProt P04439, A269V/D140Y/D185E/E176V/E277Q/E87N/F33Y/G231S/I121R/I166T/I218V/L180W/L300P/L318F/N151K/P208A/P217A/Q86R/R138H/R169H/S129P/T345S/V36M). The experiment in a line: biochemical. In kind it is binding.
Experiment [6] addresses HLA-A*2902 (Homo sapiens, UniProt P04439, A270S/D101N/D185E/E176V/E277Q/E87Q/F33T/G231S/H175R/I121M/I218V/I322F/K168Q/L300P/L318F/M331R/P208A/P217A/Q86L/T323A/T345S/V100A/V358M). The experiment is described as follows: MHC molecular binding / Capture assay, IC50: A*2902. As to conditions: Binding affinity to A*2902 (expressed as an IC50).
In experiment [7] the target is HLA-A*3002 (Homo sapiens, UniProt P04439, D101N/D140H/D185E/E176R/F33S/G80R/H175R/K168Q/Q94H/R138E/R41S/V100E). The experiment is described as follows: biochemical. In kind it is binding. As to conditions: Binding affinity to A*3002 (expressed as an IC50).
The mark [8] stands for this setting: A*0201 binding affinity (expressed as an IC50).
Where [9] appears, read: A*0202 binding affinity (expressed as an IC50).
[10] abbreviates: A*0203 binding affinity (expressed as an IC50).
Where [11] appears, read: A*0206 binding affinity (expressed as an IC50).
The mark [12] stands for this setting: A*6802 binding affinity (expressed as an IC50).

Take LLYSKKRQEI: the half-inhibitory concentration (IC50) (commonly the midpoint of a concentration-inhibition curve) is 80700 nM in experiment [1], 152 nM in experiment [2] and > 9440 nM in experiment [3].
On to MTNNPPVPV, for which the IC50 in experiment [1] (setting [8]) stood at 86 nM; in experiment [4] (setting [9]) it was 18 nM; in experiment [2] (setting [10]) it was 0.42 nM.
Take FLKEKGGV: the IC50 in experiment [4] was 653 nM; in experiment [3], > 14300 nM; in experiment [5], > 19500 nM.
Take WQNYTPGPGV: the 50% inhibitory concentration (IC50) in experiment [2] (setting [10]) is 230 nM; in experiment [3] (setting [11]), 223 nM; in experiment [5] (setting [12]), 12000 nM.
As to KIYKIIIWI, the figures for the half-inhibitory concentration (IC50) in experiment [1] (setting [8]), in experiment [2] (setting [10]) and in experiment [5] (setting [12]) were 157 nM, 638 nM and 2200 nM, respectively.
In the case of AMAKAAAAL [AMAKAAAAL], the IC50 was 413 nM in experiment [1] (setting [8]), 123 nM in experiment [4] (setting [9]), 3.7 nM in experiment [2] (setting [10]) and 320 nM in experiment [5] (setting [12]).
For the compound TLHDLCQAV, the 50% inhibitory concentration (IC50) in experiment [4] came to 17 nM; in experiment [2], 15 nM; in experiment [3] it was 10600 nM; in experiment [5], 2810 nM.
On to VLAKGPGPGTL, for which the half-inhibitory concentration (IC50) is 11300 nM in experiment [1] (setting [8]), 26 nM in experiment [4] (setting [9]) and > 170000 nM in experiment [5] (setting [12]).
Turning to KLTPRCVTL, the IC50 in experiment [4] is 150 nM; in experiment [2], 20 nM; in experiment [3], 1550 nM; in experiment [5] it was > 63500 nM.
FGVRPQVPL: inhibition in experiment [5] was half-maximal at 321 nM (IC50).
For the compound YLKEPVHGV, the IC50 in experiment [1] was 54 nM; in experiment [4], 0.65 nM; in experiment [2] it was 1.9 nM; in experiment [5] it was 63 nM.
As for RLFEESLGI, the IC50 in experiment [4] (setting [9]) came out at 1.9 nM; in experiment [2] (setting [10]) it was 5.5 nM; in experiment [3] (setting [11]), 68 nM; in experiment [5] (setting [12]), 418 nM.
For IYRGTSFVYV, the IC50 is 50000 nM in experiment [1] (read-out: A*0201 binding affinity (expressed as an IC50)) and 1220 nM in experiment [5] (read-out: A*6802 binding affinity (expressed as an IC50)).
YMIKKLLKI: the IC50 was determined as 4.6 nM in experiment [4] (setting [9]), 4.7 nM in experiment [2] (setting [10]), 93 nM in experiment [3] (setting [11]) and 63100 nM in experiment [5] (setting [12]).
In experiment [1] (setting [8]), QAHCNISRA gave a concentration for half-maximal inhibition (IC50) of 338 nM.
Compound FPFKYAAAV yielded an IC50 in experiment [5] (setting [12]) of 92 nM.
With ILAEAMSQV, the IC50 came to 38 nM in experiment [1] (setting [8]), 1.1 nM in experiment [4] (setting [9]), 1.1 nM in experiment [2] (setting [10]) and 34 nM in experiment [5] (setting [12]).
On to KLTPLCVPL, for which the IC50 in experiment [1] was determined as 15 nM; in experiment [4], 0.25 nM; in experiment [2], 297 nM.
On to MTANPPVPV, for which the concentration for half-maximal inhibition (IC50) in experiment [1] (setting [8]) amounted to 20 nM; in experiment [4] (setting [9]), 5 nM; in experiment [2] (setting [10]), 0.62 nM; in experiment [5] (setting [12]) it was 4 nM.
Turning to YLPGPGIRYPL, the IC50 in experiment [4] was 20 nM; in experiment [2], 1580 nM; in experiment [3] (setting [11]) it was 3500 nM.
As to MTGNPPIPV, the 50% inhibitory concentration (IC50) is 11 nM in experiment [4] (setting [9]), 0.74 nM in experiment [2] (setting [10]), 79 nM in experiment [3] (setting [11]) and 7.8 nM in experiment [5] (setting [12]).
As to TLHDLCQAL [TLHDLCQAL], the IC50 in experiment [1] (setting [8]) stood at 1400 nM; in experiment [4] (setting [9]), 2.7 nM; in experiment [2] (setting [10]), 40 nM; in experiment [5] (setting [12]), 70400 nM.
Consider VLAEAMSHA, for which the IC50 is 1.7 nM in experiment [4], 1.2 nM in experiment [2], 121 nM in experiment [3] and 431 nM in experiment [5].
For `CC[C@H](C)[C@H](NC(=O)[C@H](CCC(=O)O)NC(=O)[C@H](CC(C)C)NC(=O)[C@H](C)NC(=O)[C@H](CO)NC(=O)[C@H](CO)NC(=O)[C@H](CC(C)C)NC(=O)[C@@H](N)CCC(=O)O)C(=O)N1CCC[C@H]1C(=O)N[C@@H](Cc1ccc(O)cc1)C(=O)O`, the IC50 is 6030 nM in experiment [6] and 4470 nM in experiment [7].
Consider VLMEWLKTRPI, for which the IC50 in experiment [1] turned out to be 464 nM.
As for MTGNPAIPV, in experiment [2] (setting [10]), the IC50 is 10 nM.
For ILDLWVYNV, the values for the IC50 in experiment [1], in experiment [4] and in experiment [2] were 40 nM, 30 nM and 201 nM, respectively.
